This passage reports IC50 results from BindingDB's records for doi:10.1021/acsmedchemlett.1c00445 (Janssen Research & Development, 2022).

Each structure is given as a SMILES string.

This experiment can be described thus: Inhibition of human amyloid beta (1 to 42) in human SKNBE2 cells expressing wild-type amyloid precursor protein hAPP695 incubated for 18 hrs by sandwich ELISA. (In general: An ELISA detects its analyte on a solid surface through an enzyme-linked reagent.)
As a reminder, the IC50 is the concentration that gives 50% inhibition. Low readings indicate higher potency, high ones lower potency. Compound `C[C@@]1(c2cc(NC(=O)c3ccc(C#N)cn3)ccc2F)Cn2cc(C#N)nc2C(N)=N1` came in with an IC50 of 8.5 nM. In other words, the single-digit nanomolar range.
The result for `COc1cnc(C(=O)Nc2ccc(F)c([C@]3(C)Cn4nc(C#N)cc4C(N)=N3)c2)cn1` reads 1.3 nM.
The compound `C[C@@]1(c2cc(NC(=O)c3ccc(C#N)cn3)ccc2F)Cn2nc(C#N)cc2C(N)=N1` came in with an IC50 of 1 nM.
Turning to `C[C@@]1(c2cc(NC(=O)c3cnc(OCF)cn3)ccc2F)Cn2nc(C#N)cc2C(N)=N1`, the IC50 amounted to 1.2 nM.
The result for `Cc1nc(C(=O)Nc2ccc(F)c([C@]3(C)Cn4nc(C#N)cc4C(N)=N3)c2)co1` reads 4.8 nM.
The result for `C[C@@]1(c2cc(NC(=O)c3cnc(C(F)F)cn3)ccc2F)Cn2nc(C#N)cc2C(N)=N1` reads 2.5 nM.
`C[C@@]1(c2cc(NC(=O)c3ccc(C#N)cn3)ccc2F)Cn2c(C#N)cnc2C(N)=N1` showed an IC50 of 3.3 nM.
The result for `C[C@@]1(c2cc(NC(=O)c3ccc(Cl)cn3)ccc2F)Cn2c(C#N)cnc2C(N)=N1` reads 3.6 nM.
On to `C[C@@]1(c2cc(NC(=O)c3ccc(F)cn3)ccc2F)Cn2nc(C#N)cc2C(N)=N1`, for which 2.6 nM corresponded to half-maximal inhibition (IC50).
`C[C@@]1(c2cc(NC(=O)c3ccc(OC(F)F)cn3)ccc2F)Cn2nc(C#N)cc2C(N)=N1` came in with an IC50 of 1 nM.
Regarding `C[C@@]1(c2cc(NC(=O)c3ccc(F)cn3)ccc2F)Cn2c(C#N)cnc2C(N)=N1`, 13 nM corresponded to half-maximal inhibition (IC50).
The same measure for `COc1cnc(C(=O)Nc2ccc(F)c([C@]3(C)Cn4c(C#N)cnc4C(N)=N3)c2)cn1`: 6.3 nM.
